This passage reports EC50 results from patent US10774076B2, “Benzazole compounds and methods for making and using the compounds” (Rigel Pharmaceuticals, Inc., priority 2015, dated 2020).

One experiment relates to IL23-p19. Put plainly: Compound screening using DC cells: LPS-induced IL-23 (p19/p40) ELISA in IFNγ-primed dendritic cells differentiated from human PBMC. It is filed as cell-based. Conditions: Dendritic cell, human PBMC-derived dendritic cells, LPS 1 μg/ml, 18 hours, 10 pt. The protocol:
Compound Screening Using DC Cells
Human PBMC cells (400 million) obtained from the vendor were transferred into a T-175 flask containing 15 ml RPMI media (10% FBS) and incubate for 2 hours at 37° C. After 2 hours, the media including floating cells was aspirated out carefully and 12 ml of fresh RPMI media (10% FBS) containing GMCSF (100 ng/ml) and IL4 (20 ng/ml) was added, and the flask was kept in a 37° C. incubator for 7 days.
After 3 days, fresh GMCSF (100 ng/ml) and IL4 (20 ng/ml) were added to the flask and the incubation continued. After 7 days, the fully differentiated cells were harvested by spinning down (1200 rpm/5 min) and aspirating the media. The cells were suspended in fresh RPMI media (10% FBS) containing 50 ng/ml IFNγ (1000 U/ml) and then plated (50K/well in 100 μl) onto a white clear bottom 96 well plate and left in a 37° C. incubator for 24 hours.
After 24 hours incubation, 100 μl of RPMI media was added containing 2× concentrated test compound per well to the above cell-culture media (final concentration becomes 1×) and the plates were pre-incubated for 1 hour at 37° C. before stimulating with LPS.
After 1 hour compound pre-incubation, 10 μl per well of 20× concentrated LPS solution in RPMI media was added to give a final concentration of 1 μg/ml. The mixture was shaken and incubated the plates at 37° C. for an additional 18 hours.
155 μl of the supernatant was harvested from each well carefully (without the tip touching the bottom of the well) and to the remaining 50 μl/well of the cell culture plate was added 50 μl of Cell Titer Glo reagent. The mixture was incubated for 1-2 minutes on a shaker and the plate was read for luminescence intensity to determine the compound cytotoxicity. The cell culture supernatant collected above was used to carry out IL23 ELISA (65 μl—Supernatant) and IL10 ELISA (90 μl—Supernatant) as described below.
Human IL-23 (p19/p40) ELISA Protocol (e-Biosciences)
To 10.5 ml PBS add 50 μl of anti-IL23 (p19) was added capture antibody (2.5 μg/ml). The mixture was mixed well and 100 μl of the coating solution was added to each well of the 96 well white plates from Pierce. The wells were covered and incubated overnight at 4° C.
The anti-IL23 (p19)-antibody-coated plates were washed 2× using TBST (use plate washer) and blocked using 200 μl of 0.5% Casein for 1.5-2 hours at room temperature with shaking.
The plates were washed 2× using TBST and the supernatant was transferred (65 μl/well) to the above pre-blocked/IL23(p19)-antibody-coated 96 well plate, and incubated at room temperature for 1.5 hours with shaking.
The plates were washed 4× using TBST (plate washer) and 100 μl/well detection antibody solution prepared from 2 μl of biotin labeled anti-IL-12 (p40/p70) antibody in 11 ml 1% BSA/PBS solution (I-5000 dilution) was added. The plates were incubated for 1 hour with shaking at Room temperature.
Again, the plates were washed 4× with TBST and 100 μl of HRP labeled Streptavidin (R&D Systems) solution (10 μl/10 ml 1% BSA solution) was added, and the plates were incubated at room temperature for another 45 minutes with shaking.
After 45 minutes, the plates were washed with TBST 4× and 100 ul/well Super Signal ELISA Pico Chemiluminescent Substrate from Pierce (3.5 ml A+3.5 ml B+3.5 ml MQ water) was added. The plates were shaken for 1-2 minutes then read on a plate reader.
(An ELISA detects its analyte on a solid surface through an enzyme-linked reagent.)

A further experiment concerns IL23p19. Put plainly: LPS Induced IL23p19 in THP-1 Cells (with IFNγ Primed) Assay. It is filed as cell-based. The settings on record: Homo sapiens, IFNγ primed (50 ng/mL), LPS 1 ug/mL, 18 hours, 10 pt, read-out: IL23-p19 ELISA, THP1-IFNy, LPS, 10 pt EC50. An excerpt:
LPS Induced IL23p19 in THP-1 Cells (with IFNγ Primed) Assay
THP-1 Cells (ATCC, Cat # TIB-202), Dimethyl Sulfoxide (DMSO) (Sigma-Aldrich, Cat # D2650), RPMI 1640 (Cellgro, Cat #10-040-CM), Fetal Bovine Serum (Sigma, Cat # F4135), Albumin From Bovine Serum (BSA) (Sigma-Aldrich, Cat # A7906), LPS (Serotype K-235, Sigma, Product Number L 2143), IFNγ (Peprotech, Cat #300-02)
Capture antibody: Human IL-23p19 ELISA (e-Bioscience, Cat. #14-7238-85),
Detection antibody: Primary Mouse Biotinylated anti-human IL-12(p40/p70) (e-Bioscience, Cat. #13-7129-85), Secondary HRP-conjugated Streptavidin (R&D Systems, Cat # DY998), 1×PBST Washing Buffer (PBS-Tween tablet) (VWR International, Cat #80058-558), ELISA Blocking Buffer (PBS with 1% BSA), ELISA Dilution Buffer (PBS with 1% BSA), 384 Well Flat-Bottom, MaxiSorp Black Immuno Plates (Thermo Scientific, Cat #12-565-346), 384 Well Flat-Bottom, White Tissue Culture Plates (Thermo Scientific, Cat #12-565-343), Super Signal ELISA Pico Chemiluminescent Substrate (Thermo Scientific, Cat #37070), Cell Titer Glo reagent (Promega, Cat # G7573), Positive control, IKK2VI inhibitor (Calbiochem, Cat #401483), AquaMax 4000 plate washer (Molecular Devices), Luminometer, Wallac Victor2 1420 Multilabel Counter. Method THP-1 Cells Stimulation:
On day 1, 50K/well THP-1 cells were seeded and primed with IFNγ (50 ng/mL) in 384-well plates for about 18 hours in RPMI media with 10% FBS. On day 2, the compound was serially diluted in DMSO from 5 mM in 3-fold dilutions, and then diluted 1:125 in RPMI media with 10% FBS. 50 μL/well 2× compound was added to 50 μL/well THP-1 cells (with IFNγ primed) in duplicate in 384 well tissue culture plates. The cells were pre-incubated with compound for 1 hour at 37° C., 5% CO2 before addition of 10 μL/well 11×LPS to give a final concentration of 1 ug/mL LPS. Day 3, after stimulation for 18 hours at 37° C., 5% CO2, the assay plate was centrifuged and 70 μL/well supernatant was harvested. IL-23p19 protein in 70 μL/well of supernatant was measured by sandwich ELISA, and 25 μl/well Cell Titer Glo reagent was added to the remaining cells to measure compound toxicity.
Human IL-23p19 Sandwich ELISA:
Maxisorp immuno ELISA plates were pre-coated with 25 μL/well of anti-IL-23p19 capture antibody (2.5 ug/mL) in PBS overnight at room temperature. After washing with 1×PBST, the plates were blocked using 100 μL/well of 1% BSA in PBS for 2 hours at room temperature. The plates were washed three times with 1×PBST and 70 μL/well supernatant were added. The plates were incubated at room temperature for 2 hours with shaking and washed three times with 1×PBST. 25 μL/well of biotin labeled anti-IL-12(p40/p70) detection antibody (100 ng/mL) in PBS with 1% BSA was added and the plates were incubated at room temperature for 2 hours with shaking. After washing three times with 1×PBST, 25 μL/well of streptavidin-HRP (1:200) in PBS with 1% BSA was added and the plates were incubated at room temperature for 20 minutes with shaking. The plates were washed three times with 1×PBST and 25 μL/well of Super Signal ELISA Pico Chemiluminescent Substrate were added. The plates were read with a luminometer, and the chemiluminescence values were entered into Athena (Rigel) for curve fitting, EC50 calculation, and database storage.

Take `Nc1ccc(-c2ccc(C(=O)Nc3cc4oc(N5CCOCC5)nc4cc3N3CCCCC3)o2)cn1` [Compound I-1, 5-(6-aminopyridin-3-yl)-N-(2-morpholino-5-(piperidin-1-yl)benzo[d]oxazol-6-yl)furan-2-carboxamide]: the results for the EC50 with IL23-p19 and in the experiment with IL23p19 were 4730 nM and 898 nM, respectively.

As for `O=C(Nc1cc2oc(N3CCOCC3)nc2cc1N1CCCCC1)c1ccc(-c2cn[nH]c2)o1` [Compound I-3, N-(2-morpholino-5-(piperidin-1-yl)benzo[d]oxazol-6-yl)-5-(1H-pyrazol-4-yl)furan-2-carboxamide], the EC50 (in general, the concentration giving half of the maximal effect) with IL23-p19 was determined as 39.1 nM; in the experiment on IL23p19, 31.4 nM.

In the case of `O=C(Nc1cc2oc(N3CCOCC3)nc2cc1N1CCCCC1)c1ccc(-c2cc[nH]n2)o1` [Compound I-4, N-(2-morpholino-5-(piperidin-1-yl)benzo[d]oxazol-6-yl)-5-(1H-pyrazol-3-yl)furan-2-carboxamide], the EC50 was found to be 12100 nM in the experiment on IL23-p19 and 901 nM with IL23p19.

For the compound `Nc1ccc(-c2ccc(C(=O)Nc3cc4sc(N5CCOCC5)nc4cc3N3CCCCC3)o2)cn1` [Compound I-5, 5-(6-aminopyridin-3-yl)-N-(2-morpholino-5-(piperidin-1-yl)benzo[d]thiazol-6-yl)furan-2-carboxamide], the EC50 with IL23-p19 was 257 nM; in the experiment on IL23p19, 432 nM.

Take `O=C(Nc1cc2sc(N3CCOCC3)nc2cc1N1CCCCC1)c1ccc(-c2cnc3[nH]ccc3c2)o1` [Compound I-6, N-(2-morpholino-5-(piperidin-1-yl)benzo[d]thiazol-6-yl)-5-(1H-pyrrolo[2,3-b]pyridin-5-yl)furan-2-carboxamide]: the EC50 is 14000 nM with IL23-p19 and 40500 nM with IL23p19.

Turning to `O=C(Nc1cc2sc(N3CCOCC3)nc2cc1N1CCCCC1)c1ccc(-c2cn[nH]c2)o1` [Compound I-7, N-(2-morpholino-5-(piperidin-1-yl)benzo[d]thiazol-6-yl)-5-(1H-pyrazol-4-yl)furan-2-carboxamide], the EC50 was 13.6 nM in the experiment with IL23-p19 and 26 nM in the experiment on IL23p19.

For `Cc1cc(-c2ccc(C(=O)Nc3cc4sc(N5CCOCC5)nc4cc3N3CCCCC3)o2)ccn1` [Compound I-9, 5-(2-methylpyridin-4-yl)-N-(2-morpholino-5-(piperidin-1-yl)benzo[d]thiazol-6-yl)furan-2-carboxamide], the EC50 in the experiment with IL23-p19 is 897 nM; with IL23p19, 52100 nM.

For the compound `Cc1cc(-c2ccc(C(=O)Nc3cc4oc(N5CCOCC5)nc4cc3N3CCCCC3)o2)ccn1` [Compound I-10, 5-(2-methylpyridin-4-yl)-N-(2-morpholino-5-(piperidin-1-yl)benzo[d]oxazol-6-yl)furan-2-carboxamide], the figures for the EC50 with IL23-p19 and in the experiment with IL23p19 were 2990 nM and 4630 nM, respectively.

As for `O=C(Nc1cc2oc(N3CCOCC3)nc2cc1N1CCCCC1)c1csc(-c2cn[nH]c2)n1` [Compound I-12, N-(2-morpholino-5-(piperidin-1-yl)benzo[d]oxazol-6-yl)-2-(1H-pyrazol-4-yl)thiazole-4-carboxamide], the EC50 in the experiment with IL23-p19 turned out to be 20 nM; with IL23p19 it was 53.9 nM.

Consider `Cc1cc(-c2nc(C(=O)Nc3cc4oc(N5CCOCC5)nc4cc3N3CCCCC3)cs2)ccn1` [Compound I-14, 2-(2-methylpyridin-4-yl)-N-(2-morpholino-5-(piperidin-1-yl)benzo[d]oxazol-6-yl)thiazole-4-carboxamide], for which the 50% effective concentration (EC50) is 17900 nM in the experiment with IL23-p19 and 10200 nM in the experiment on IL23p19.

Consider `CN1CCN(c2nc3cc(N4CCCCC4)c(NC(=O)c4ccc(-c5ccc(N)nc5)o4)cc3o2)CC1` [Compound I-15, 5-(6-aminopyridin-3-yl)-N-(2-(4-methylpiperazin-1-yl)-5-(piperidin-1-yl)benzo[d]oxazol-6-yl)furan-2-carboxamide], for which the EC50 was determined as 1690 nM in the experiment with IL23-p19 and 73000 nM in the experiment on IL23p19.

With `CN1CCN(c2nc3cc(N4CCCCC4)c(NC(=O)c4ccc(-c5cn[nH]c5)o4)cc3o2)CC1` [Compound I-16, N-(2-(4-methylpiperazin-1-yl)-5-(piperidin-1-yl)benzo[d]oxazol-6-yl)-5-(1H-pyrazol-4-yl)furan-2-carboxamide], the values for the EC50 in the experiment on IL23-p19 and in the experiment on IL23p19 were 32.2 nM and 25.8 nM, respectively.

As to `CN1CCN(c2nc3cc(N4CCCCC4)c(NC(=O)c4ccc(-c5cc[nH]n5)o4)cc3o2)CC1` [Compound I-17, N-(2-(4-methylpiperazin-1-yl)-5-(piperidin-1-yl)benzo[d]oxazol-6-yl)-5-(1H-pyrazol-3-yl)furan-2-carboxamide], the EC50 is 1020 nM in the experiment on IL23-p19 and 1230 nM with IL23p19.

Consider `Cc1cc(-c2ccc(C(=O)Nc3cc4oc(N5CCN(C)CC5)nc4cc3N3CCCCC3)o2)ccn1` [Compound I-18, N-(2-(4-methylpiperazin-1-yl)-5-(piperidin-1-yl)benzo[d]oxazol-6-yl)-5-(2-methylpyridin-4-yl)furan-2-carboxamide], for which the concentration giving a half-maximal response (EC50) with IL23-p19 was 889 nM; in the experiment on IL23p19, 7510 nM.
